Laboratory results taken from patent US8497263B2, “Pyrrolinone derivative and pharmaceutical composition comprising the same” (Shionogi & Co., Ltd., priority 2007, dated 2013).

Molecular target: T1, human P2X3 receptor (Homo sapiens, UniProt P56373)
T1 construct: expressed in transfected cells
T1 sequence (P56373 1-397): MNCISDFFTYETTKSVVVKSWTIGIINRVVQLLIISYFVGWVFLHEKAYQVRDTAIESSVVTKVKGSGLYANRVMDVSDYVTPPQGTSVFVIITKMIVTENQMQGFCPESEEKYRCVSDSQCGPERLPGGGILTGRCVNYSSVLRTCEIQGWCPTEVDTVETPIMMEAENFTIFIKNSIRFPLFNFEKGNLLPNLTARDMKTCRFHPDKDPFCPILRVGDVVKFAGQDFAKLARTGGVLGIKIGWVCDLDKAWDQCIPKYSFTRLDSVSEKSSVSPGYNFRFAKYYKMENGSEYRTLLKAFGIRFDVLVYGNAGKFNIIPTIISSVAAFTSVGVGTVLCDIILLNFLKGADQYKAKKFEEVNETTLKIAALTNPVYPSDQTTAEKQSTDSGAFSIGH
Assay: Inhibition of ATP-induced calcium fluorescence (Fluo-3, FDSS 3000) in C6BU-1 cells stably expressing human P2X3 receptor
Type: cell-based
Conditions: C6BU-1 cell transfected with human P2X3 receptor gene; 40 nM ATP solution; Fluo-3 fluorescence intensity
Procedure: Stably expressing cell line (C6BU-1 cell transfected with human P2X3 receptor gene (GenBank accession number Y07683)) was used. The cells were seeded in a 96-well microtiter plate at a concentration of 8000 cells/well and cultured in the medium (8.3% fetal bovine serum, 8.3% horse serum, 1% antibiotic and antifungal in DMEM) for one day at 37° C. under 5% carbon dioxide atmosphere. The medium was replaced with 4 μM Fluo-3-AM solution (pH7.5) containing 20 mM HEPES, 137 mM NaCl, 2.7 mM KCl, 0.9 mM MgCl2, 5.0 mM CaCl2, 5.6 mM D-glucose, 2.5 mM probenecid, 10% BSA, and 0.08% Pluronic F-127, and incubated at 37° C. under 5% dioxide carbon atmosphere for one hour. The plate was washed with washing buffer (20 mM HEPES, 137 mM NaCl, 2.7 mM KCl, 0.9 mM MgCl2, 5.0 mM CaCl2, 5.6 mM D-glucose, 2.5 mM probenecid, pH7.5), and each well was added with 40 μL of this buffer. The plate was placed in High-Throughput Screening System FDSS 3000 (Hamamatsu Photonics K.K.). Measurement of fluorescence intensity by FDSS 3000 was started, and 40 μL of DMSO solutions containing different concentrations of the test compound as prepared by dilution with dilution buffer (20 mM HEPES, 137 mM NaCl, 2.7 mM KCl, 0.9 mM MgCl2, 5.0 mM CaCl2, 5.6 mM D-glucose, 2.5 mM probenecid, 0.1% Pluronic F-127, pH7.5) were dispensed to each well through the built-in automatic dispenser. Five minutes after, 40 nM ATP solution (50 μL) prepared by dilution with the dilution buffer was dispensed through the built-in automatic dispenser, and the measurement of fluorescence intensity was continued for 3 min. For each well, the specific maximum fluorescence intensity was calculated as the ratio of the maximum fluorescence intensity after addition of the ATP solution to the fluorescence intensity at the starting of the measurement. […] FDSS software (Hamamatsu Photonics K.K.) was used for calculation of the specific maximum fluorescence intensity. IC50 was calculated using Microsoft™ Excel™ (Microsoft Corporation) and XLfit™ (ID Business Solutions Ltd.).

IC50 [µM]	Compound
0.02	CCOC(=O)c1ccc(N2C(=O)C(=O)C(C(=O)c3ccc(OC)cc3)C2c2ccccc2)cc1 (stereo not drawn) [Example I-4]
0.14	CCOC(=O)c1ccc(N2C(=O)C(O)=C(C(=O)c3ccc(OC)cc3)C2C(C)C)cc1 (stereo not drawn) [Example I-20]
0.16	COc1ccc(C(=O)C2C(=O)C(=O)N(c3ccc(C(=O)OC(C)C)cc3)C2c2ccccc2)cc1 (stereo not drawn) [Example I-21]
0.18	COC(=O)c1ccc(C(=O)C2=C(O)C(=O)N(c3ccc(C(F)(F)F)cc3)C2c2ccccc2)cc1 (stereo not drawn) [Example I-24]
0.26	CCOC(=O)c1ccc(N2C(=O)C(O)=C(C(=O)C(C)(C)C)C2c2ccccc2)cc1 (stereo not drawn) [Example I-28]
0.38	CCOC(=O)c1ccc(N2C(=O)C(O)=C(C(=O)c3cccs3)C2c2ccccc2)cc1 (stereo not drawn) [Example I-36]
0.56	CCOC(=O)c1ccc(N2C(=O)C(=O)C(/C(=N\O)c3ccc(OC)cc3)C2c2ccccc2)cc1 (stereo not drawn) [Example I-44]
1.02	CCCCC(=O)C1=C(O)C(=O)N(c2ccc(C(=O)OCC)cc2)C1c1ccccc1 (stereo not drawn) [Example I-49]
1.27	CCOC(=O)c1csc(N2C(=O)C(O)=C(C(=O)c3ccc(OC)cc3)C2c2ccccc2)n1 (stereo not drawn) [Example I-52]
1.28	CCOC(=O)c1ccc(N2C(=O)C(O)=C(C(=O)C3CCC3)C2c2ccccc2)cc1 (stereo not drawn) [Example I-53]
1.53	CCOC(=O)c1ccc(N2C(=O)C(O)=C(C(=O)c3cccn3C)C2c2ccccc2)cc1 (stereo not drawn) [Example I-57]
1.96	CC(=O)c1ccc(N2C(=O)C(=O)C(C(=O)c3ccc(Cl)cc3)C2c2ccc(Br)cc2)cc1 (stereo not drawn) [Example I-62]
3.46	COc1ccc(C(=O)C2=C(O)C(=O)N(c3ccc(Cl)cc3)C2c2ccc(F)cc2)cc1 (stereo not drawn) [Example I-66]
4.79	CCOC(=O)c1ccc(N2C(=O)C(=O)C(C(C)=O)C2c2ccccc2)cc1 (stereo not drawn) [Example I-72]
5.92	COc1ccc(C(=O)C2=C(O)C(=O)N(c3ccc(C(=O)N(C)C)cc3)C2c2ccccc2)cc1 (stereo not drawn) [Example I-74]
6.48	COc1ccc(C(=O)C2=C(O)C(=O)N(c3ccc(C#N)cc3)C2c2ccccc2)cc1 (stereo not drawn) [Example I-76]
8.01	CCOC(=O)c1ccc(N2C(=O)C(O)=C(C(=O)c3ccco3)C2c2ccccc2)cc1 (stereo not drawn) [Example I-77]
8.95	CCOC(=O)Cc1ccc(N2C(=O)C(O)=C(C(=O)c3ccc(OC)cc3)C2c2ccccc2)cc1 (stereo not drawn) [Example I-79]
15.4	CCOc1ccc(C(=O)C2C(=O)C(=O)N(c3ccc(OC)cc3)C2c2ccc(Cl)cc2)cc1 (stereo not drawn) [Example I-88]
0.56	COc1ccccc1C1c2c(-c3ccc(C)cc3)n[nH]c2C(=O)N1c1ccc(F)cc1 (stereo not drawn) [Example I-95]
17.8	O=C1c2[nH]nc(-c3ccc(Cl)cc3)c2C(c2ccc([N+](=O)[O-])cc2)N1c1ccccn1 (stereo not drawn) [Example I-118]
19.3	COc1cccc(C2c3c(C)n[nH]c3C(=O)N2c2ccc(Br)cc2)c1 (stereo not drawn) [Example I-122]
22	COc1ccc(C2NC(=O)c3[nH]nc(-c4ccc(C)cc4)c32)cc1OC (stereo not drawn) [Example I-124]
5.63	COc1ccccc1C1c2c(C3CCC3)n[nH]c2C(=O)N1c1ccc(F)cc1 (stereo not drawn) [Example I-260]
2.2	COc1ccc(C(=O)C2=C(O)C(=O)N(CCc3ccc(F)cc3)C2c2ccccc2OC)cc1 (stereo not drawn) [Example I-273]

IC50 [µM]	Compound
1.4	COc1ccc(-c2n[nH]c3c2C(c2ccccc2OC)N(CCc2ccc(F)cc2)C3=O)cc1 (stereo not drawn) [Example I-278]
1.37	COc1ccccc1C1c2c(-c3ccc(F)cc3)n[nH]c2C(=O)N1c1ccc(F)cc1 (stereo not drawn) [II-5]
0.86	CCCCC(=O)C1=C(O)C(=O)N(c2ccc(-c3ccon3)cc2)C1c1ccccc1OC (stereo not drawn) [II-9]
0.57	CO/N=C/c1ccc(N2C(=O)c3[nH]nc(-c4ccc(OC)cc4)c3C2c2ccccc2OC)cc1 (stereo not drawn) [II-13]
1.51	CCOC(=O)c1ccc(N2C(=O)C(=NOC)C(C(=O)c3ccc(OC)cc3)C2c2ccccc2)cc1 (stereo not drawn) [II-16]
0.305	CCOC(=O)c1ccc(N2C(=O)C(O)=C(C(=NOC)c3ccc(OC)cc3)C2c2ccccc2)cc1 (stereo not drawn) [II-17]
2.31	COc1ccc(/C(N)=C2/C(=O)C(=O)N(c3ccc(C(F)(F)F)cc3)C2c2ccccc2)cc1 (stereo not drawn) [II-22]
0.59	COc1ccccc1C1C(C(=O)C(C)(C)C)=C(O)C(=O)N1c1ccc(C2=NCCS2)cc1 (stereo not drawn) [II-29]
1.07	COc1ccccc1C1C(C(=O)C2CC2)=C(O)C(=O)N1c1ccc(-c2ccon2)cc1 (stereo not drawn) [II-45]
1.68	C#Cc1ccc(N2C(=O)C(O)=C(C(=O)c3ccc(OC)cc3)C2c2ccc(F)cc2)cc1 (stereo not drawn) [II-57]
1.31	C#Cc1ccc(N2C(=O)c3[nH]nc(C(C)(C)C)c3C2c2ccc(F)cc2)cc1 (stereo not drawn) [II-64]
0.37	O=C(C1=C(O)C(=O)N(c2ccc(-c3ccon3)cc2)C1C1CCCCC1)c1cccnc1 (stereo not drawn) [II-75]
2.52	COc1ccccc1C1C(C(=O)CCOCc2ccccc2)=C(O)C(=O)N1c1ccc(-c2ccon2)cc1 (stereo not drawn) [II-85]
1.32	COc1ccccc1C1c2c(CCOCc3ccccc3)n[nH]c2C(=O)N1c1ccc(-c2ccon2)cc1 (stereo not drawn) [II-87]
0.71	COc1ccc(C(=O)C2=C(O)C(=O)N(c3nc(-c4ccncc4)cs3)C2C2CCCCC2)cc1 (stereo not drawn) [II-95]
0.07	O=C(C1=C(O)C(=O)N(c2ccc(-c3ccon3)cc2)C1C1CCCCC1)c1ccc([N+](=O)[O-])cc1 (stereo not drawn) [II-98]
2.08	COc1ccc(-c2n[nH]c3c2C(c2ccccc2)N(c2ccc(C(=O)N(C)C)cc2)C3=O)cc1 (stereo not drawn) [II-106]
2.09	COc1ccccc1C1C(C(=O)C(C)=O)=C(O)C(=O)N1c1ccc(-c2ccon2)cc1 (stereo not drawn) [II-123]
0.74	COc1ccccc1C1C(C(=O)C(C)(C)CO)=C(O)C(=O)N1c1ccc(-c2ccon2)cc1 (stereo not drawn) [II-129]
0.13	Nc1ccc(C(=O)C2=C(O)C(=O)N(c3ccc(-c4ccon4)cc3)C2C2CCCCC2)cc1 (stereo not drawn) [II-130]
0.95	COc1ccccc1C1c2c(C(C)(C)C)n[nH]c2C(=O)N1c1ccc(-c2cc(CO)no2)cc1 (stereo not drawn) [II-171]
2	COc1ccccc1C1c2c(C(C)(C)C)n[nH]c2C(=O)N1c1ccc(-c2cc(C(=O)N(C)C)no2)cc1 (stereo not drawn) [II-172]
0.33	COc1ccc(C(=O)C2=C(O)C(=O)N(c3nc4ccc(Cl)cc4s3)C2C2CCCCC2)cc1 (stereo not drawn) [II-181]
0.032	CCC(CC)C1C(C(=O)c2ccc(C(=O)NCCO)cc2)=C(O)C(=O)N1c1ccc(-c2noc(C)n2)cc1 (stereo not drawn) [II-183]
2.27	COc1ccccc1C1c2c(C(C)(C)C)n[nH]c2C(=O)N1c1ccc(-c2cc(NC(=O)OC(C)(C)C)no2)cc1 (stereo not drawn) [II-193]

Tested on: not given
Assay: not given
Conditions: not given

melting point [°C]	Compound
245 to 248	COc1ccc(C(=O)C2=C(O)C(=O)N(c3ccc(-c4noc(C)n4)cc3)C2C2CCCCC2)cc1 (stereo not drawn) [Example I-231]
223 to 225	CCC(CC)C1C(C(=O)c2ccc(OC)cc2)=C(O)C(=O)N1c1ccc(-c2noc(C)n2)cc1 (stereo not drawn) [Example I-232]
247 to 250	COc1ccc(C(=O)C2=C(O)C(=O)N(c3ccc(C4=NCCS4)cc3)C2C2CCCCC2)cc1 (stereo not drawn) [Example I-233]
230 to 233	CCC(CC)C1C(C(=O)c2ccc(OC)cc2)=C(O)C(=O)N1c1ccc(C2=NCCS2)cc1 (stereo not drawn) [Example I-234]
232 to 234	COc1ccc(C(=O)C2=C(O)C(=O)N(c3ccc(-c4ccon4)cc3)C2c2ccccn2)cc1 (stereo not drawn) [Example I-236]
233 to 236	COc1ccc(C(=O)C2=C(O)C(=O)N(c3ccc(Br)cc3)C2c2ccccc2)cc1 (stereo not drawn) [Example I-237]
245 to 247	COc1ccc(C(=O)C2=C(O)C(=O)N(c3ccc(OC)cc3)C2c2ccc(F)cc2)cc1 (stereo not drawn) [Example I-238]
197 to 204	COc1ccc(C(=NO)C2=C(OCc3ccccc3)C(=O)N(c3ccc(C(F)(F)F)cc3)C2c2ccccc2)cc1 (stereo not drawn) [Example I-250]
202	COc1ccccc1C1c2c(C(C)(C)C)n[nH]c2C(=O)N1c1cccc(-c2ccon2)c1 (stereo not drawn) [II-8]
136 to 137	COC1=C(C(=O)C(C)(C)C)C(c2ccccc2OC)N(c2ccc(-c3ccon3)cc2)C1=O (stereo not drawn) [II-156]
